Measured values from PubChem BioAssay (NCI).
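At the GI50, growth is halved. Definition used: TGI = concentration required for complete inhibition of growth.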

Tests used:
Experiment in all cases: NCI anticancer screen, dose series, 384-well format
786-0 renal = system: 786-0 renal
CAKI-1 renal = system: CAKI-1 renal
CCRF-CEM leukemia = system: CCRF-CEM leukemia
COLO 205 colon = system: COLO 205 colon
EKVX NSCLC = system: EKVX NSCLC
HCC-2998 colon = system: HCC-2998 colon
HCT-116 colon = system: HCT-116 colon
HCT-15 colon = system: HCT-15 colon
HL-60(TB) leukemia = system: HL-60(TB) leukemia
HOP-62 NSCLC = system: HOP-62 NSCLC
HOP-92 NSCLC = system: HOP-92 NSCLC
HS 578T breast = system: HS 578T breast
K-562 leukemia = system: K-562 leukemia
KM12 colon = system: KM12 colon
LOX IMVI melanoma = system: LOX IMVI melanoma
MCF7 breast = system: MCF7 breast
MDA-MB-231 breast = system: MDA-MB-231 breast
MDA-MB-468 breast = system: MDA-MB-468 breast
MOLT-4 leukemia = system: MOLT-4 leukemia
NCI-H226 lung = system: NCI-H226 lung
NCI-H23 lung = system: NCI-H23 lung
NCI-H322M lung = system: NCI-H322M lung
NCI-H522 lung = system: NCI-H522 lung
NCI/ADR-RES ovarian = system: NCI/ADR-RES ovarian
OVCAR-3 ovarian = system: OVCAR-3 ovarian
OVCAR-4 ovarian = system: OVCAR-4 ovarian
OVCAR-5 ovarian = system: OVCAR-5 ovarian
OVCAR-8 ovarian = system: OVCAR-8 ovarian
PC-3 prostate = system: PC-3 prostate
RPMI-8226 leukemia = system: RPMI-8226 leukemia
RXF 393 renal = system: RXF 393 renal
SF-295 CNS = system: SF-295 CNS
SF-539 CNS = system: SF-539 CNS
SK-MEL-2 melanoma = system: SK-MEL-2 melanoma
SK-MEL-28 melanoma = system: SK-MEL-28 melanoma
SK-MEL-5 melanoma = system: SK-MEL-5 melanoma
SK-OV-3 ovarian = system: SK-OV-3 ovarian
SN12C renal = system: SN12C renal
SNB-19 CNS = system: SNB-19 CNS
SNB-75 CNS = system: SNB-75 CNS
SR leukemia = system: SR leukemia
SW-620 colon = system: SW-620 colon
T-47D breast = system: T-47D breast
TK-10 renal = system: TK-10 renal
U251 glioblastoma = system: U251 glioblastoma
UACC-257 melanoma = system: UACC-257 melanoma
UO-31 renal = system: UO-31 renal

Question: Which GI50 ([…]-0 renal) does the source give for CN(C)C(=O)c1cc2cnc(Nc3ccc(N4CCNCC4)cn3)nc2n1C1CCCC1 here?
Answer: The GI50 was 6.77 µM.

Question: What about the TGI (786-0 renal) of the same compound?
Answer: The TGI was 36 µM.

Question: What about the GI50 (CAKI-1 renal) of the same compound?
Answer: Its GI50 is 8.2 µM.

Question: What about the TGI (CAKI-1 renal) of the same compound?
Answer: Its TGI is 63.6 µM.

Question: What about the GI50 (CCRF-CEM leukemia) of the same compound?
Answer: Its GI50 is 2.39 µM.

Question: What about the TGI (CCRF-CEM leukemia) of the same compound?
Answer: Its TGI is greater than 34.4 µM.

Question: And the GI50 (COLO 205 colon)?
Answer: Its GI50 is 7.64 µM.

Question: And the TGI (COLO 205 colon)?
Answer: The TGI was 30.1 µM.

Question: What about the GI50 (EKVX NSCLC) of the same compound?
Answer: The GI50 was 30.1 µM.

Question: What about the TGI (EKVX NSCLC) of the same compound?
Answer: The TGI was greater than 73 µM.

Question: What about the GI50 (HCC-2998 colon) of the same compound?
Answer: Its GI50 is 29.2 µM.

Question: What about the TGI (HCC-2998 colon) of the same compound?
Answer: Its TGI is greater than 100 µM.

Question: And the GI50 (HCT-116 colon)?
Answer: The GI50 was 7.55 µM.

Question: And the TGI (HCT-116 colon)?
Answer: The TGI was 23.5 µM.

Question: What about the GI50 (HCT-15 colon) of the same compound?
Answer: The GI50 was 28.8 µM.

Question: What about the TGI (HCT-15 colon) of the same compound?
Answer: Its TGI is greater than 75.4 µM.

Question: And the GI50 (HL-60(TB) leukemia)?
Answer: The GI50 was 0.866 µM.

Question: And the TGI (HL-60(TB) leukemia)?
Answer: The TGI was 26.3 µM.

Question: What about the GI50 (HOP-62 NSCLC) of the same compound?
Answer: The GI50 was 29.2 µM.

Question: What about the TGI (HOP-62 NSCLC) of the same compound?
Answer: Its TGI is 67.6 µM.

Question: And the GI50 (HOP-92 NSCLC)?
Answer: Its GI50 is 11.9 µM.

Question: And the TGI (HOP-92 NSCLC)?
Answer: The TGI was 57.4 µM.

Question: And the GI50 (HS 578T breast)?
Answer: The GI50 was 33 µM.

Question: What about the TGI (HS 578T breast) of the same compound?
Answer: Its TGI is greater than 58.5 µM.

Question: What about the GI50 (K-562 leukemia) of the same compound?
Answer: Its GI50 is 10.8 µM.

Question: What about the TGI (K-562 leukemia) of the same compound?
Answer: Its TGI is 29.7 µM.

Question: What about the GI50 (KM12 colon) of the same compound?
Answer: Its GI50 is 2.51 µM.

Question: And the TGI (KM12 colon)?
Answer: The TGI was 35.5 µM.

Question: What about the GI50 (LOX IMVI melanoma) of the same compound?
Answer: Its GI50 is 8.51 µM.

Question: And the TGI (LOX IMVI melanoma)?
Answer: Its TGI is 47.9 µM.

Question: And the GI50 (MCF7 breast)?
Answer: Its GI50 is 23.3 µM.

Question: And the TGI (MCF7 breast)?
Answer: The TGI was 40.7 µM.

Question: And the GI50 (MDA-MB-231 breast)?
Answer: Its GI50 is 4.09 µM.

Question: And the TGI (MDA-MB-231 breast)?
Answer: The TGI was 33.7 µM.

Question: What about the GI50 (MDA-MB-468 breast) of the same compound?
Answer: Its GI50 is greater than 59.3 µM.

Question: And the TGI (MDA-MB-468 breast)?
Answer: Its TGI is greater than 100 µM.

Question: What about the GI50 (MOLT-4 leukemia) of the same compound?
Answer: The GI50 was 0.73 µM.

Question: What about the TGI (MOLT-4 leukemia) of the same compound?
Answer: Its TGI is 6.31 µM.

Question: And the GI50 (NCI-H226 lung)?
Answer: The GI50 was 8.83 µM.

Question: What about the TGI (NCI-H226 lung) of the same compound?
Answer: The TGI was 58.1 µM.

Question: And the GI50 (NCI-H23 lung)?
Answer: The GI50 was 25.3 µM.

Question: What about the TGI (NCI-H23 lung) of the same compound?
Answer: The TGI was 61.1 µM.

Question: What about the GI50 (NCI-H322M lung) of the same compound?
Answer: Its GI50 is 21.3 µM.

Question: And the TGI (NCI-H322M lung)?
Answer: The TGI was 59.5 µM.

Question: What about the GI50 (NCI-H522 lung) of the same compound?
Answer: Its GI50 is 29.5 µM.

Question: And the TGI (NCI-H522 lung)?
Answer: The TGI was 82.2 µM.

Question: And the GI50 (NCI/ADR-RES ovarian)?
Answer: The GI50 was greater than 100 µM.

Question: And the TGI (NCI/ADR-RES ovarian)?
Answer: Its TGI is greater than 100 µM.

Question: And the GI50 (OVCAR-3 ovarian)?
Answer: The GI50 was 33.1 µM.

Question: What about the TGI (OVCAR-3 ovarian) of the same compound?
Answer: Its TGI is 61.7 µM.

Question: What about the GI50 (OVCAR-4 ovarian) of the same compound?
Answer: The GI50 was 30.4 µM.

Question: And the TGI (OVCAR-4 ovarian)?
Answer: Its TGI is greater than 94 µM.

Question: What about the GI50 (OVCAR-5 ovarian) of the same compound?
Answer: Its GI50 is 10.8 µM.

Question: And the TGI (OVCAR-5 ovarian)?
Answer: Its TGI is 85.3 µM.

Question: And the GI50 (OVCAR-8 ovarian)?
Answer: The GI50 was 37.5 µM.

Question: And the TGI (OVCAR-8 ovarian)?
Answer: The TGI was 74.9 µM.

Question: What about the GI50 (PC-3 prostate) of the same compound?
Answer: Its GI50 is 17.8 µM.

Question: And the TGI (PC-3 prostate)?
Answer: The TGI was greater than 80.5 µM.

Question: What about the GI50 (RPMI-8226 leukemia) of the same compound?
Answer: Its GI50 is 0.607 µM.

Question: What about the TGI (RPMI-8226 leukemia) of the same compound?
Answer: Its TGI is 27.4 µM.

Question: What about the GI50 (RXF 393 renal) of the same compound?
Answer: The GI50 was 17.5 µM.

Question: And the TGI (RXF 393 renal)?
Answer: Its TGI is 31 µM.

Question: What about the GI50 (SF-295 CNS) of the same compound?
Answer: The GI50 was 23.1 µM.

Question: And the TGI (SF-295 CNS)?
Answer: Its TGI is 57.4 µM.

Question: And the GI50 (SF-539 CNS)?
Answer: The GI50 was 22.2 µM.

Question: And the TGI (SF-539 CNS)?
Answer: The TGI was 68.2 µM.

Question: And the GI50 (SK-MEL-2 melanoma)?
Answer: The GI50 was 16.8 µM.

Question: And the TGI (SK-MEL-2 melanoma)?
Answer: The TGI was 35.7 µM.

Question: And the GI50 (SK-MEL-28 melanoma)?
Answer: The GI50 was 37.5 µM.

Question: What about the TGI (SK-MEL-28 melanoma) of the same compound?
Answer: Its TGI is greater than 66 µM.

Question: What about the GI50 (SK-MEL-5 melanoma) of the same compound?
Answer: The GI50 was 28 µM.

Question: What about the TGI (SK-MEL-5 melanoma) of the same compound?
Answer: The TGI was greater than 97.1 µM.

Question: And the GI50 (SK-OV-3 ovarian)?
Answer: Its GI50 is greater than 80.2 µM.

Question: What about the TGI (SK-OV-3 ovarian) of the same compound?
Answer: The TGI was greater than 100 µM.

Question: And the GI50 (SN12C renal)?
Answer: The GI50 was 20.3 µM.

Question: And the TGI (SN12C renal)?
Answer: Its TGI is greater than 73.2 µM.

Question: What about the GI50 (SNB-19 CNS) of the same compound?
Answer: The GI50 was greater than 67.7 µM.

Question: What about the TGI (SNB-19 CNS) of the same compound?
Answer: The TGI was greater than 100 µM.

Question: And the GI50 (SNB-75 CNS)?
Answer: The GI50 was 24.5 µM.

Question: What about the TGI (SNB-75 CNS) of the same compound?
Answer: The TGI was 55 µM.

Question: What about the GI50 (SR leukemia) of the same compound?
Answer: The GI50 was 0.507 µM.

Question: And the TGI (SR leukemia)?
Answer: Its TGI is 1.97 µM.

Question: And the GI50 (SW-620 colon)?
Answer: The GI50 was 9.02 µM.

Question: And the TGI (SW-620 colon)?
Answer: The TGI was greater than 65.6 µM.

Question: What about the GI50 (T-47D breast) of the same compound?
Answer: Its GI50 is 9.8 µM.

Question: What about the TGI (T-47D breast) of the same compound?
Answer: The TGI was greater than 46.4 µM.

Question: And the GI50 (TK-10 renal)?
Answer: The GI50 was 27.3 µM.

Question: What about the TGI (TK-10 renal) of the same compound?
Answer: Its TGI is greater than 100 µM.

Question: What about the GI50 (U251 glioblastoma) of the same compound?
Answer: Its GI50 is 30.8 µM.

Question: What about the TGI (U251 glioblastoma) of the same compound?
Answer: The TGI was greater than 46.4 µM.

Question: And the GI50 (UACC-257 melanoma)?
Answer: The GI50 was 47.6 µM.

Question: And the TGI (UACC-257 melanoma)?
Answer: Its TGI is greater than 69.7 µM.

Question: What about the GI50 (UO-31 renal) of the same compound?
Answer: Its GI50 is 13.8 µM.

Question: What about the TGI (UO-31 renal) of the same compound?
Answer: Its TGI is greater than 100 µM.
